In ChEMBL document CHEMBL6092209, “New Discorhabdin D Analogues from Latrunculia spp. Sponges” (2024):
The source made the active and inactive calls. No cut-off for these calls is given here.

Experiments:
[1] = system: Panel NCI-60 (60 carcinoma cell lines); assay: Growth inhibition of human Panel NCI-60 (60 carcinoma cell lines) cells at 10 uM; type: functional, cell-based
[2] = system: Panel NCI-60 (60 carcinoma cell lines); assay: Growth inhibition of human Panel NCI-60 (60 carcinoma cell lines) cells; type: functional

Q: How did the Activity [1] turn out when `N[C@H](CS[C@H]1[C@H]2C(=O)C=C3S[C@H]4C[C@]31C1=C(N4)C(=O)c3[nH]cc4c3C1=[N+]2CC4)C(=O)O` was run?
A: Its Activity is “inactive”.

Q: What about the GI50 [2] of the same molecule?
A: The GI50 was greater than 10 µM.

Q: What does the source list for `N[C@@H](CCC(=O)N[C@@H](CS[C@H]1[C@H]2C(=O)C=C3S[C@H]4C[C@]31C1=C(N4)C(=O)c3[nH]cc4c3C1=[N+]2CC4)C(=O)NCC(=O)O)C(=O)O`?
A: Activity [1]: inactive; GI50 [2]: > 10 µM

Q: What does the source list for `N[C@@H](CS[C@H]1[C@H]2C(=O)C=C3S[C@H]4C[C@]31C1=C(N4)C(=O)c3[nH]cc4c3C1=[N+]2CC4)C(=O)O`?
A: Activity [1]: inactive; GI50 [2]: > 10 µM

Q: With `O=C1C2=C3C4=[N+](CCc5c[nH]c1c54)[C@H]1C[C@@]34C[C@@H](N2)SC4=CC1=O` as the molecule, how does the GI50 [2] read?
A: The GI50 was 0.8 µM.

Q: For `O=C1C=C(S[C@H]2[C@H]3C(=O)C=C4S[C@H]5C[C@]42C2=C(N5)C(=O)c4[nH]cc5c4C2=[N+]3CC5)[C@]2(C=C1Br)CCNC1=C2C2=NCCc3c[nH]c(c32)C1=O`, which GI50 [2] is on record?
A: The GI50 was 4.8 µM.

Q: How did the GI50 [2] turn out when `COc1cccc2c1C(=O)c1c(O)c3c(c(O)c1C2=O)C[C@@](O)(C(=O)CO)C[C@@H]3O[C@H]1C[C@H](N)[C@H](O)[C@H](C)O1` [DOXORUBICIN] was run?
A: The GI50 was 0.12 µM.

Q: How did the GI50 [2] turn out when `O=C(O)CN[C@H]1[C@H]2C(=O)C=C3S[C@H]4C[C@]31C1=C(N4)C(=O)c3[nH]cc4c3C1=[N+]2CC4` was run?
A: Its GI50 is 16.9 µM.

Q: `O=C1C2=C3C4=[N+](CCc5c[nH]c1c54)[C@@H]1C(=O)C=C4S[C@@H](C[C@@]43[C@H]1O)N2` was tested. Which GI50 [2] did it give?
A: Its GI50 is 0.79 µM.

Q: Which Activity [1] does the source give for `N[C@@H](CS[C@H]1[C@H]2C(=O)C=C3S[C@H]4C[C@]31C1=C(N4)C(=O)c3[nH]cc4c3C1=[N+]2CC4)C(=O)NCC(=O)O` here?
A: The Activity was “inactive”.

Q: What about the GI50 [2] of the same molecule?
A: Its GI50 is greater than 10 µM.

Q: `Cn1cnc(S[C@H]2[C@H]3C(=O)C=C4S[C@H]5C[C@]42C2=C(N5)C(=O)c4[nH]cc5c4C2=[N+]3CC5)c1C[C@H](N)C(=O)O` was tested. Which GI50 [2] did it give?
A: The GI50 was greater than 10 µM.

Q: How did the GI50 [2] turn out when `COC(=O)CN[C@H]1[C@H]2C(=O)C=C3S[C@H]4C[C@]31C1=C(N4)C(=O)c3[nH]cc4c3C1=[N+]2CC4` was run?
A: Its GI50 is 2.45 µM.
